Experimental data taken from article PMC11494455 (Nature chemical biology, 2022).

Biological target: THP4.1 biosensor (Salmonella typhimurium, UniProt Q8ZR43)
Assay: Dose response and ligand response of the THP4.1 biosensor
Assay type: cell-based
Details: pThpR reporter

THP4.1 biosensor, sequence (Q8ZR43 whole entry): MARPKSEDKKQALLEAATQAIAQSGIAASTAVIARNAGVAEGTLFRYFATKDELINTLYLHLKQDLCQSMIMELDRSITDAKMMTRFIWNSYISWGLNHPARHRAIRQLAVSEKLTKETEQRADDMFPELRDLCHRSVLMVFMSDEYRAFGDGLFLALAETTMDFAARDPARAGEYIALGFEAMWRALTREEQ

COc1ccc(C[C@@H]2NCCc3cc(OC)c(O)cc32)cc1O [norreticuline]
responsiveness of THP4.1: somewhat responsive
